Measurements as given in patent publication US20080039522A1, “Composition Containing a Complex Comprising a Metal Ion and a Carboxylate Ligand Having Anti-Inflammatory Activity” (Medical Therapies Limited, priority 2004, published 2008).

Experiments:
Sprague-Dawley rats [1] = test: Anti-inflammatory activity (rat paw oedema) after subcutaneous or intramuscular injection; type: in vivo
Protocol: (§1) In Vivo Anti-inflammatory Activity and Gastric Toxicity. Groups of four rats were used for all studies. All doses were calculated as equivalent concentrations of Indo. […] For subcutaneous and intramuscular administration, rats were injected with 125-200 μL volumes of the test compositions (IndoH or [Cu2(Indo)4(OH2)2] in MCT oil). The control cohort was injected with equivalent volumes of neat MCT. Subcutaneous injections were made in the lower dorsal surface and intramuscular injections were made in the right hind thigh muscle. Inflammation was induced 1 h after dosing by injection of the formulation by an injection of carrageenan (0.1 mL, 1% w/v in isotonic saline) into the plantar region of the hind paw.
Paw volume was measured prior to dosing and at 3 h after carrageenan injection by immersing the left hind paw (to the lateral malleus) into a vessel filled with water as described in Example 5. Immediately after paw volume measurements, 24 h-fasted animals were euthanised and the stomach was excised and opened by incision along the greater curvature.

Sprague-Dawley rats [2] = test: Observation of the site of the subcutaneous injection; type: in vivo, rat; conditions: subcutaneous, in MCT oil, all doses
Protocol: as §1

Sprague-Dawley rats [3] = test: Inhibition of carrageenan-induced paw edema, oral administration; type: in vivo, rat; conditions: oral, IndoH 10 mg kg^−1, complex 11 mg kg^−1, mean(sem)
Protocol: Inhibition of Carrageenan-Induced Paw Edema: Rats were orally administered (non-anaesthetized) the Test Samples or Test Compositions via oral gavage. The control cohort was dosed solely with CMC (2%) solution. […] Exp. Ther. 1965, 150, 165-171). The thickness of the paw was measured at the ventral dorsal footpad using digital calipers prior to dosing and at 3 and 5 h after carrageenan injection. The change in the measured parameter (ΔP) for thickness of paw (Δmm) at n=3- and 5-hours after carrageenan injection is given by: ΔP=Pt=n-Pt=0 (I) The percent inhibition (% inhibition) at 3- or 5-hours in the measured parameter (P) due to the treatment is given as the difference between the % increase in the value of P in the control group and the treatment group at n=3- or 5-hours, with the % increase in the value of P given by: […]

[4] = EPR spectroscopic determination of Cu(II) monomer / dissociation of the complex in formulations; type: physicochemical; conditions: percentage of the total amount of Cu in the composition; X-band EPR, 4 K
Protocol: The synthesis of [Cu2(Indo)4(OH2)2] may result in a product containing a small amount of monomer (typically 5% or less), and this monomer may or may not contain Indo Thus a composition containing [Cu2(Indo)4(OH2)2] may or may not contain a small amount of a Cu(II) monomer containing Indo.
The relative amounts of the Cu(II) monomer in samples of various compositions containing the complex [Cu2(Indo)4(OH2)2] were determined as described below. […]
EPR Spectroscopy. Low temperature (4-110 K) X-band EPR spectra of the compositions containing [Cu2(Indo)4(OH2)2] were measured at X-band frequencies (˜9.5 GHz) using a Bruker EMX EPR spectrometer equipped with a standard ER4120 X band cavity, EMX 035M NMR gaussmeter, EMX 032T field controller, EMX 081 magnet power supply, Bruker EMX 048T microwave bridge control and BVT2000 variable temperature unit and Oxford Instruments E900 continuous flow cryostat (for low temperature data collection). Low temperature X-band EPR Cu(II) spectra of samples of [Cu2(Indo)4(OH2)2] containing less than 0.47 mM Cu(II) were measured using a Bruker ESP 300 spectrometer equipped with a Hewlett Packard 5352B microwave frequency counter, Bruker ER 085C magnet power supply, Bruker ER 032 magnet field control, Bruker ER 023M signal channel and Bruker ESP 1600-1048 microwave bridge controller. […]

COc1ccc2c(c1)c(CC(=O)[O-])c(C)n2C(=O)c1ccc(Cl)cc1.COc1ccc2c(c1)c(CC(=O)[O-])c(C)n2C(=O)c1ccc(Cl)cc1.COc1ccc2c(c1)c(CC(=O)[O-])c(C)n2C(=O)c1ccc(Cl)cc1.COc1ccc2c(c1)c(CC(=O)[O-])c(C)n2C(=O)c1ccc(Cl)cc1.O.O.[Cu+2].[Cu+2] [[Cu2(Indo)4(OH2)2]]
Percent inhibition (Sprague-Dawley rats [1]; intramuscular, fasting rats, 2 mg/kg equivalent dose of Indo): 0% | Percent inhibition (Sprague-Dawley rats [1]; intramuscular, fasting rats, 10 mg/kg equivalent dose of Indo): 47.7% | Percent inhibition (Sprague-Dawley rats [1]; intramuscular, fasting rats, 20 mg/kg equivalent dose of Indo): 49.7% | Percent inhibition (Sprague-Dawley rats [1]; subcutaneous, 1 mg/kg of Indo, fasting): 4% | Percent inhibition (Sprague-Dawley rats [1]; subcutaneous, 2 mg/kg of Indo, fasting): 6% | Percent inhibition (Sprague-Dawley rats [1]; subcutaneous, 5 mg/kg of Indo, fasting): 24.9% | Percent inhibition (Sprague-Dawley rats [1]; subcutaneous, 7.5 mg/kg of Indo, non-fasting): 47% | Percent inhibition (Sprague-Dawley rats [1]; subcutaneous, 10 mg/kg of Indo, fasting): 35.8% | Percent inhibition (Sprague-Dawley rats [1]; subcutaneous, 20 mg/kg of Indo, fasting): 33.9% | Percent inhibition (Sprague-Dawley rats [1]; subcutaneous, 20 mg/kg of Indo, non-fasting): 31.6% | dose at which the anti-inflammatory effect plateaus (Sprague-Dawley rats [1]; subcutaneous, in MCT oil): 5-7.5 mg kg^−1 of Indo | adverse effect at the site of the injection (Sprague-Dawley rats [2]): None of the rats exhibited soreness, swelling, redness or any other adverse effect | percent inhibition in rat hind-paw diameter change, 3-hr (Sprague-Dawley rats [3]; 3 h post carrageenan): 30(4)% | percent inhibition in rat hind-paw diameter change, 5-hr (Sprague-Dawley rats [3]; 5 h post carrageenan): 31(3)% | Cu(II) monomer (%) [4]: ^aThe technique is not applicable to dry powders, however, solid-state [Cu2(Indo)4L2] (L = OH2) contains <1% Cu(II) monomer fraction.
